Molecular target: T1, human M4 muscarinic acetylcholine receptor (Homo sapiens, UniProt P08173)
T1 construct: expressed in transfected cells; host or cells: CHO-K1
T1 sequence (P08173 1-479): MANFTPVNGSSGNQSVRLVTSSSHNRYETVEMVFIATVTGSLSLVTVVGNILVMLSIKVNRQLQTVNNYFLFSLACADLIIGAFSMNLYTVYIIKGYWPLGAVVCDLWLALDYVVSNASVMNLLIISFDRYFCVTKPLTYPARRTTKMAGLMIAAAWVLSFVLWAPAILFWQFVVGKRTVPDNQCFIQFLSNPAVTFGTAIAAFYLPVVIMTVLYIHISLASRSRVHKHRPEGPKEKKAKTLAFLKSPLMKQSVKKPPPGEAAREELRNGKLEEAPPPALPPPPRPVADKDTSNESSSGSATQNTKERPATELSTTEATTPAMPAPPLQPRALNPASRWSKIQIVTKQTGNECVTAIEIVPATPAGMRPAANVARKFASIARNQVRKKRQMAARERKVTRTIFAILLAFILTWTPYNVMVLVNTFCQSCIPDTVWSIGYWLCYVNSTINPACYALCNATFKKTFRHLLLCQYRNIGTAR
Assay: human FLIPR-based M4 PAM assay (CHO-K1 cells with human M4 receptor and Gαqi5, calcium dye fluorescence, acetylcholine at 20% of maximum response)
Assay type: cell-based
Details: inflection point (IP) of 4 parameter logistic dose response curve, human M4 receptor + Gαqi5, FLIPR Tetra
Experimental: In a typical experiment the M4 muscarinic acetylcholine receptor modulating activity of the compounds of the present invention was determined in accordance with the following experimental method. CHO-K1 cells stably transfected with human M4 receptor and chimeric G-protein Gαqi5 (Coward P, et al., Analytical Biochemistry, 270:242-248 (1999)) are thawed from liquid N2 storage, resuspended in growth medium, plated in black, clear bottom 384 well plates, and incubated 16-20 hours at 37° C., 5% CO2. On the day of assay, growth medium is removed, the cells are washed 2 times with wash buffer, and cells are incubated in dye loading buffer at 37° C., 5% CO2 for ˜1 hour. Following dye loading the cell plates are placed in a FLIPR Tetra instrument and while monitoring dye fluorescence (excitation […]), 10 uL of test substance at increasing concentrations is added, and fluorescence values are recorded for 4 min. Next, 10 uL of acetylcholine is added (final concentration calculated so as to achieve 20% of the maximum acetycholine response), and the fluorescence reading is continued for 3.5 min. In some cases, a third addition of acetylcholine (final concentration calculated to achieve 70% of the maximal acetylcholine response) is performed. The resulting dose response curves are fit to a 4 parameter logistic equation and the final result is determined as the inflection point (IP) of the curve
CHO-K1 cells stably transfected with human M4 receptor and chimeric G-protein Gαqi5 are thawed from liquid N2 storage, resuspended in growth medium, plated in black, clear bottom 384 well plates, and incubated 16-20 hours at 37° C., 5% CO2.
On the day of assay, growth medium is removed, the cells are washed 2 times with wash buffer, and cells are incubated in dye loading buffer at 37° C., 5% CO2 for ˜1 h. Following dye loading the cell plates are placed in a FLIPR Tetra instrument and while monitoring dye fluorescence ([…]), 10 uL of test substance at increasing concentrations is added, and fluorescence values are recorded for 4 min. Next, 10 uL of acetylcholine is added (final concentration calculated so as to achieve 20% of the maximum acetycholine response), and the fluorescence reading is continued for 3.5 min. In some cases, a third addition of acetylcholine (final concentration calculated to achieve 70% of the maximal acetylcholine response) is performed.

| Compound | EC50 [nM] |
| --- | --- |
| COc1ccc(OC2CCN(c3nc4c(cc3C)CN(C(=O)C3COC3)C4)CC2)cn1 [Example 55, (2-(4-((6-methoxypyridin-3-yl)oxy)piperidin-1-yl)-3-methyl-5,7-dihydro-6H-pyrrolo[3,4-b]pyridin-6-yl)(oxetan-3-yl)methanone] | 212 |
| Cc1cc2c(nc1N1CCC(Oc3ccc4c(c3)COC4)CC1)C1COCCN1C2=O (single isomer, unassigned) [Example 81B] | 163 |
| COc1ccc(OC2CCN(c3nc4n[nH]c(=O)n4cc3C)CC2)cn1 [Example 4] | 55 |
| Cc1cn2c(=O)n(CCO)nc2nc1N1CCC(Oc2ccc3c(c2)COC3)CC1 [Example 13, 7-(4-((1,3-Dihydro-2-benzofuran-5-yl)oxy)piperidin-1-yl)-2-(2-hydroxyethyl)-6-methyl-[1,2,4]triazolo[4,3-a]pyrimidin-3(2H)-one] | 47 |
| COc1ccc(OC2CCN(c3nc4cn(C)nc4cc3C)CC2)cn1 [Example 64, 5-(4-((6-Methoxypyridin-3-yl)ox)piperidin-1-yl)-2,6-dimethyl-2H-pyrazolo[4,3-b]pyridine] | 242 |
| Cc1cc2c(nc1N1CCC(Oc3cccc(C#N)c3)CC1)COC2=O [Example 32, 3-((1-(3-methyl-5-oxo-5,7-dihydrofuro[3,4-b]pyridin-2-yl)piperidin-4-yl)oxy)benzonitrile] | 14 |
| COc1ccc(OC2CCN(c3nc4[nH]c(=O)[nH]c4cc3C)CC2)cn1 [Example 79, 5-(4-((6-Methoxypyridin-3-yl)oxy)piperidin-1-yl)-6-methyl-1,3-dihydro-2H-imidazo[4,5-b]pyridin-2-one] | 1170 |
| COc1ccc(OC2CCN(c3nc4c(cc3C)CN(C(=O)C3CCCC3)C4)CC2)cn1 [Example 46, cyclopentyl(2-(4-((6-methoxypyridin-3-yl)oxy)piperidin-1-yl)-3-methyl-5,7-dihydro-6H-pyrrolo[3,4-b]pyridin-6-yl)methanone] | 306 |

More lines, in order of falling EC50, values ahead:

| EC50 [nM] | Compound |
| --- | --- |
| 3080 | COc1ccc(OC2CCN(c3nc4c(cc3C)C(O)CC4)CC2)cn1 (single isomer, unassigned) [Example 71A] |
| 481 | COc1ccc(OC2CCN(c3nc4c(cc3C)CN(C(=O)c3ccc[nH]3)C4)CC2)cn1 [Example 50, (2-(4-((6-methoxypyridin-3-yl)oxy)piperidin-1-yl)-3-methyl-5,7-dihydro-6H-pyrrolo[3,4-b]pyridin-6-yl)(1H-pyrrol-2-yl)methanone] |
| 267 | (R)-2-(4-((6-Methoxypyridin-3-yl)oxy)piperidin-1-yl)-3,7-dimethylfuro[3,4-b]pyridin-5(7H)-one and (S)-2-(4-((6-methoxypyridin-3-yl)oxy)piperidin-1-yl)-3,7-dimethylfuro[3,4-b]pyridin-5(7H)-one [Example 29A] |
| 238 | COc1ccc(OC2CCN(c3nc4c(cc3C)CN(C(=O)CN(C)C)C4)CC2)cn1 [Example 54, 2-(dimethylamino)-1-(2-(4-((6-methoxypyridin-3-yl)oxy)piperidin-1-yl)-3-methyl-5,7-dihydro-6H-pyrrolo[3,4-b]pyridin-6-yl)ethan-1-one] |
| 57 | Cc1cc2c(=O)[nH][nH]c2nc1N1CCC(Oc2cccc(C#N)c2)CC1 [Example 22, 3-((1-(5-methyl-3-oxo 2,3-dihydro-1H-pyrazolo[3,4-b]pyridin-6-yl)piperidin-4-yl)oxy)benzonitrile] |
| 42 | COc1ccc(OC2CCN(c3nc4c(cc3C)C(=O)CC4)CC2)cn1 [Example 69, 2-(4-((6-Methoxypyridin-3-yl)oxy)piperidin-1-yl)-3-methyl-6,7-dihydro-5H-cyclopenta[b]pyridin-5-one] |
| 25 | (R)-2-(4-((1,3-dihydroisobenzofuran-5-yl)oxy)piperidin-1-yl)-3-methyl-8,9,10,10a-tetrahydropyrido[2′,3′:3,4]pyrrolo[1,2-a]pyrazin-5(7H)-one and (S)-2-(4-((1,3-dihydroisobenzofuran-5-yl)oxy)piperidin-1-yl)-3-methyl-8,9,10,10a-tetrahydropyrido[2′,3′:3,4]pyrrolo[1,2-a]pyrazin-5(7H)-one [Example 83B] |

Source: US11230556B2 (Merck Sharp & Dohme Corp., priority 2016, dated 2022)
